Assay results reported in ChEMBL document CHEMBL4715769, “Discovery of a novel chimeric ubenimex-gemcitabine with potent oral antitumor activity” (Bioorg Med Chem, 2016).
Activity calls are given as the source filed them. The calls are words filed in the database; no cut-off is given here.

Tests used:
KG-1 = assay: Antiproliferative activity against human KG1 cells after 48 hrs by MTT assay; settings: KG-1, 48 h
U-266 = assay: Antiproliferative activity against human U266 cells after 48 hrs by MTT assay; settings: U-266, 48 h
PLC-PRF-5 [1] = assay: Inhibition of colony formation in human PLC-PRF-5 cells assessed as reduction in number of colonies at 0.2 uM after 2 weeks by Giemsa staining based inverted microscopic analysis; assay type: functional, cell-based
MDA-MB-231 = assay: Antiproliferative activity against human MDA-MB-231 cells after 48 hrs by MTT assay; settings: MDA-MB-231, 48 h
Aminopeptidase N = biological target: T1, Aminopeptidase N (Sus scrofa, UniProt P15145); assay: Inhibition of porcine kidney microsomal CD13 using L-leucine-p-nitroanilide as substrate preincubated for 5 mins followed by substrate addition and measured after 30 mins by microplate reader analysis; assay type: microsomes, Microsome
T1 sequence (P15145 whole entry): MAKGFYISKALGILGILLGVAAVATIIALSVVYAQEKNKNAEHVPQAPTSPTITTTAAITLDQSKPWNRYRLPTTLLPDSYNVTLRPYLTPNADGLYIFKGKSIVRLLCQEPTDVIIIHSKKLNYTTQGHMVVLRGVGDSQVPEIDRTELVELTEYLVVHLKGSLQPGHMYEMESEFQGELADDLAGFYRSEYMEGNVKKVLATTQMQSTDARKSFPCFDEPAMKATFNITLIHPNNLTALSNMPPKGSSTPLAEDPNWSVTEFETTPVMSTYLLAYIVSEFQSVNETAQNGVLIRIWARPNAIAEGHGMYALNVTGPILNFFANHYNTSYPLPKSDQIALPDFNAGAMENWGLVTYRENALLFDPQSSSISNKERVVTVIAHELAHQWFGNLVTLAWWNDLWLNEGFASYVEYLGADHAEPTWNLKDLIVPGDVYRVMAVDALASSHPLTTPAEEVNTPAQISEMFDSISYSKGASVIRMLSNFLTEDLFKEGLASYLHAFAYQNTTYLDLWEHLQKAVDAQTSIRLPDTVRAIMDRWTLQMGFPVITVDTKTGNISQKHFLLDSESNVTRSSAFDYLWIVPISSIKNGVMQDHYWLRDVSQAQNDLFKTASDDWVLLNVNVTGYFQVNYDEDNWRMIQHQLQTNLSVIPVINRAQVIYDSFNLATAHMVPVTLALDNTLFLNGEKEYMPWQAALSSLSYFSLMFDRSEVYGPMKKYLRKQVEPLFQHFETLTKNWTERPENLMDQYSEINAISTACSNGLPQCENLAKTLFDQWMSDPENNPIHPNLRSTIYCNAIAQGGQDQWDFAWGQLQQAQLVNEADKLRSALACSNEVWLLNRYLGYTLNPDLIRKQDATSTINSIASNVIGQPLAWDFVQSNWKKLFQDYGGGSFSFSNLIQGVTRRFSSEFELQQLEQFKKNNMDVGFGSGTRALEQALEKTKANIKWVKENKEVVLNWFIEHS

[2] = Prodrug conversion in human plasma assessed as release of active metabolites GEM and Ube measured within 120 mins at 37 degC by HPLC analysis; assay type: ADME, cell-free; settings: 2 h
A549 = assay: cells; settings: Homo sapiens, A549, 48 h
HEL = assay: cells; settings: Homo sapiens, 48 h
Description: Antiproliferative activity against human HEL cells after 48 hrs by MTT assay

HUVEC = assay: Antiangiogenic activity in HUVEC assessed as inhibition of capillary like tubular formation at 30 uM after 8 hrs by matrigel based tube formation assay; assay type: functional; settings: Homo sapiens
K562 = assay: cells; settings: Homo sapiens, K562, 48 h
[3] = Antiproliferative activity against human 3AO cells after 48 hrs by MTT assay
PLC-PRF-5 [4] = assay: Antiproliferative activity against human PLC-PRF-5 cells after 48 hrs by MTT assay; settings: PLC-PRF-5, 48 h
PLC-PRF-5 [5] = assay: Induction of apoptosis in human PLC-PRF-5 cells assessed as necrotic cells at 2 uM after 48 hrs by Annexin V-FITC/propidium iodide staining-based flow cytometric analysis (reference value: 6.1 %); assay type: functional
PC-3 = assay: cells; settings: Homo sapiens, PC-3, 48 h
Description: Antiproliferative activity against human PC-3 cells after 48 hrs by MTT assay

U-937 = assay: cells; settings: Homo sapiens, U-937, 48 h
Description: Antiproliferative activity against human U937 cells after 48 hrs by MTT assay

[6] = Antiproliferative activity against human ES2 cells after 48 hrs by MTT assay; settings: ES-2, 48 h
Aorta = assay: Antiangiogenic activity in Wistar rat thoracic aortic rings assessed as decrease in number of microvessels sprouting at 20 ug/ml treated every other day for 9 days; assay type: functional, tissue-based; settings: dose 20.0 µg/ml, time 9.0 day
PLC-PRF-5 [7] = assay: Antitumor activity against human PLC-PRF-5 cells xenografted in BALB/c nude mouse assessed as inhibition of tumor growth by measuring T/C ratio at 25 mg/kg, po; assay type: functional
HeLa = assay: cells; settings: Homo sapiens, 48 h
HepG2 = settings: Homo sapiens, dose 25.0 mg/kg
Description: Antitumor activity against human HepG2 cells xenografted in BALB/c nude mouse assessed as inhibition of tumor growth at 25 mg/kg, po

PLC-PRF-5 [8] = assay: Induction of apoptosis in human PLC-PRF-5 cells assessed as late apoptotic cells at 2 uM after 48 hrs by Annexin V-FITC/propidium iodide staining-based flow cytometric analysis (reference value: 8.7 %); assay type: functional
L02 = assay: Antiproliferative activity against human HL7702 cells after 48 hrs by MTT assay; settings: L02, 48 h
H22 [9] = assay: Antitumor activity against mouse H22 cells transplanted in Kunming mouse assessed as tumor growth inhibition at 25 mg/kg, po administered every 4 days for 4 doses; assay type: functional, organism-based; settings: time 4.0 day
H22 [10] = assay: Antitumor activity against mouse H22 cells transplanted in Kunming mouse assessed as tumor growth inhibition at 25 mg/kg, ip administered every 4 days for 4 doses; assay type: functional, organism-based; settings: time 4.0 day
PLC-PRF-5 [11] = assay: Antitumor activity against human PLC-PRF-5 cells xenografted in BALB/c nude mouse assessed as inhibition of tumor growth by measuring T/C ratio at 25 mg/kg, ip; assay type: functional

| IC50 (MDA-MB-231) [nM] | IC50 (A549) [nM] | IC50 (HEL) [nM] | IC50 (K562) [nM] | IC50 (PC-3) [nM] | IC50 (U-937) [nM] | IC50 (HeLa) [nM] | Compound | IC50 (KG-1) [nM] | IC50 (U-266) [nM] | IC50 [3] [nM] | IC50 (PLC-PRF-5 [4]) [nM] | Activity (PLC-PRF-5 [5]) [%] | IC50 [6] [nM] | Activity (PLC-PRF-5 [8]) [%] | IC50 (L02) [nM] | further results |
| --- | --- | --- | --- | --- | --- | --- | --- | --- | --- | --- | --- | --- | --- | --- | --- | --- |
| 1560 | 660 | 610 | 130 | 260 | 80 | 5480 | CC(C)C[C@H](NC(=O)[C@@H](O)[C@H](N)Cc1ccccc1)C(=O)Nc1ccn([C@@H]2O[C@H](CO)[C@@H](O)C2(F)F)c(=O)n1.Cl | 820 | 260 | 9730 | 1410 | 10.7 | 280 | 18.4 | 22100 | Activity (PLC-PRF-5 [1]): Active; IC50 (Aminopeptidase N): 8750 nM; Drug metabolism [2]: Metabolite_Detected; inhibition at 30 µM (HUVEC): 100%; Activity (Aorta): Active; T/C (PLC-PRF-5 [7]): 51%; inhibition (HepG2): Active; growth inhibition (GI) (H22 [9]): Active |
| 1670 | 260 | 480 | 110 | 220 | 70 | 2740 | Nc1ccn([C@@H]2O[C@H](CO)[C@@H](O)C2(F)F)c(=O)n1 [GEMCITABINE] | 860 | 220 | 5730 | 1530 | 25 | 530 | 18 | 5430 | growth inhibition (GI) (H22 [10]): Active; T/C (PLC-PRF-5 [11]): 54% |
| > 500000 | – | > 500000 | – | – | – | > 500000 | CC(C)C[C@H](NC(=O)[C@@H](O)[C@H](N)Cc1ccccc1)C(=O)O [UBENIMEX] | > 500000 | > 500000 | > 500000 | > 500000 | 7.1 | > 500000 | 11 | – | – |
